This is an account of results in US6410567B1, “Pesticide containing a photosensitizer and an attractant” (priority 1996, dated 2002).

What all share (type): in vivo
For data set [1], the system named is Ceratitis capitata. The data set is described as follows: Comparative studies on the photoinsecticidal activity of different sensitizing compounds (percent survival after irradiation). As to conditions: for Percent survival, 0 h after 1 h irradiation / Percent survival, 1 h after 1 h irradiation / Percent survival, 24 h after 1 h irradiation: 6 μmoles/ml photosensitizer for 24 h, 1220 μE s^−1 m^−2 for 1 h; for Percent survival, 0 h after 1 h irradiation: 0 h after irradiation; for Percent survival, 1 h after 1 h irradiation: 1 h after irradiation; for Percent survival, 24 h after 1 h irradiation: 24 h after irradiation; for Percent survival, pre-irradiation: Ceratitis capitata fed 24 h with sucrose solution containing 6 μmoles/ml photosensitizer, before irradiation. The method, then:
31. Comparative Studies on the Photosecticidal Activity of Different Sensitizing Compounds
Target: Ceratitis capitata
Light source: Sunlight-simulating halogen lamp
Light intensity (fluence rate): 1220 μE s^−1 m^−2
Groups of at least 20 flies were fed for 24 h with 3 ml of an aqueous solution containing sucrose (attractive) and 6 μmoles/ml of the photosensitizer. […]

Data set [2] has as its system flies. The data set is described as follows: Mortality investigations: control flies given only HP without irradiation. Conditions: flies fed HP in the food, no irradiation. The method, then:
An appropriate number of flies (25 for each experiment) was removed from a population and starved for 48 hours. Then, depending on the individual experimental conditions, the flies were provided with food, the control animals being fed with sugar and water while the test group received hematoporphyrin (HP; shown below) which had been added to the food. The animals were then used for the individual experiments; for example, HP was extracted or the flies were irradiated, etc.
3. Mortality Investigations
Control flies and flies fed with HP were irradiated with light sources (HQIT 400W/D OSRAM) whose emitted light is similar to sunlight. The number of survivors was plotted against the irradiation time. The HP concentration, the flux rate and the exposure time (or the total light dose) were investigated as parameters in respect of their effect on the mortality.

Data set [3] relates to flies. Put plainly: Effect of the attractant buminal on the intake of HP (extraction, spectrofluorimetric analysis). Conditions: HP 8 μmol/ml offered for 6 h, in combination with buminal vs buminal-free food. As for the experimental part:
19. Effect of the Attractant Buminal on the Intake and Action of HP
Groups of 10 flies each were fed for two days with an aqueous solution comprising sucrose and were then fed with compositions which contained the following ingredients:
1. HP (8 μmol/ml)+buminal (1 ml)
3. HP (8 μmol/ml)+1 ml sucrose (1.4 mg/ml)
4. HP (8 μmol/ml)+buminal (0.5 ml)+sucrose (0.5 ml)
The animals were able to take in the compositions indicated above for 6 hours. Thereafter the flies were subjected to an extraction in order to extract the HP taken in, which was quantified by a spectrofluorimetric analysis. From these experiments it is clearly evident that buminal is capable of sharply increasing the intake of HP by the flies, the flies taking in about four times the quantity of photosensitizer when the latter is offered in combination with buminal, in comparison to the buminal-free food. The addition of buminal therefore strengthens the action of HP.

As for `COc1ccc(NC(N)=S)cc1` [VI, 1-(4-methoxyphenyl)-2-thiourea], in data set [1], the “Percent survival, 0 h after 1 h irradiation” value (shortened to “Percent survival, 0 h”) stood at 100%; the “Percent survival, 1 h after 1 h irradiation” value (shortened to “Percent survival, 1 h”) is listed as 95%; the “Percent survival, 24 h after 1 h irradiation” value (shortened to “Percent survival, 24 h”) is on record as 90%; the “Percent survival, pre-irradiation” value came out at 100%.
On to `Nc1c(S(=O)(=O)[O-])ccc2c1C(=O)c1ccccc1C2=O.[Na+]` [V, 1-amino-anthraquinone-2-sulphonate (sodium salt)], for which, in data set [1], the “Percent survival, 0 h” value turned out to be 100%; the “Percent survival, 1 h” value turned out to be 77%; the “Percent survival, 24 h” value is 60%; the “Percent survival, pre-irradiation” value amounted to 100%.
Take “Al(III)-phtalocyanine tetrasulphonate (sodium salt)”: in data set [1], the “Percent survival, 0 h” value worked out at 100%; the “Percent survival, 1 h” value was 95%; the “Percent survival, 24 h” value is 90%; the “Percent survival, pre-irradiation” value was 100%.
As to `C[n+]1ccc(-c2c3nc(c(-c4cc[n+](C)cc4)c4ccc([nH]4)c(-c4cc[n+](C)cc4)c4nc(c(-c5ccccc5)c5ccc2[nH]5)C=C4)C=C3)cc1` [II, meso-tri(4N-methyl-pyridyl)-monophenyl-porphine], in data set [1], the “Percent survival, 0 h” value is reported as 10%; the “Percent survival, 1 h” value was 0%; the “Percent survival, 24 h” value was determined as 0%; the “Percent survival, pre-irradiation” value is listed as 100%.
Take `CC1=C(CCC(=O)O)c2cc3[nH]c(cc4nc(cc5[nH]c(cc1n2)c(C)c5C(C)O)C(C)=C4C(C)O)c(C)c3CCC(=O)O` (stereo not drawn) [I, hematoporphyrin]: in data set [1], the “Percent survival, 0 h” value worked out at 60%; the “Percent survival, 1 h” value stood at 25%; the “Percent survival, 24 h” value came out at 5%; the “Percent survival, pre-irradiation” value was determined as 100%. For the same compound, the “Mortality or toxic effect without irradiation” value in data set [2] is “In none of the experiments was mortality or a toxic effect observed”. For the same compound, the “Quantity of photosensitizer taken in with buminal in comparison to the buminal-free food” value in data set [3] was “about four”.
For the compound `O=C([O-])c1cccc2sc3ccccc3c(=O)c12.[Na+]` [VII, thioxanthene-9-one-1-carbonate (sodium salt)], in data set [1], the “Percent survival, 0 h” value was 100%; the “Percent survival, 1 h” value is 100%; the “Percent survival, 24 h” value was 90%; the “Percent survival, pre-irradiation” value is 100%.
For the compound `O=C1OC2(c3cc(I)c(O)c(I)c3Oc3c2cc(I)c(O)c3I)c2c(Cl)c(Cl)c(Cl)c(Cl)c21` [IV, Rose bengal (tetrachloro, tetraiodo-fluorescein)], in data set [1], the “Percent survival, 0 h” value worked out at 85%; the “Percent survival, 1 h” value is 58%; the “Percent survival, 24 h” value amounted to 30%; the “Percent survival, pre-irradiation” value stood at 100%.
